These results are taken from US6645970B2, “Indolylmaleimide derivatives” (Novartis AG, priority 2000, dated 2003).

Assay [1] has as its target T1, Human recombinant PKCβ1 (Homo sapiens, UniProt P05771).
T1 construct: purchased Oxford Biomedical Research
The assay is described as follows: Protein Kinase Cβ1 Assay. Type of assay: biochemical. The settings on record: human recombinant PKCβ1, 10 μM ATP. Here is the method:
(§1) The compounds of formula I are tested for their activity on different PKC isoforms according to a published method (D. Geiges et al. Biochem. Pharmacol. 1997;53:865-875) The assay is performed in a 96-well polypropylene microtiterplate (Costar 3794) that has been previously siliconized with Sigmacote (Sigma SL-2). The reaction mixture (50 μl) contains 10 μl the relevant PKC isozyme together with 25 μl of the test compound and 15 μl of a mix solution that contains 200 μg/ml protamine sulfate, 10 mM Mg(NO3)2, 10 μM ATP (Boehringer 519987) and 3750 Bq of ^33P-ATP (Hartmann Analytic SFC301, 110TBq/mmol) in 20 mM Tris-buffer pH 7.4+0.1% BSA. Incubation is performed for 15 min at 32° C. in a microtiterplate shaking incubator (Biolabo Scientific Instruments). Reaction is stopped by adding 10 μl of 0.5 M Na2EDTA, pH 7.4. 50 μl of mixture are pipetted onto a pre-wetted phosphocellulose paper (Whatmann 3698-915) under gentle pressure. Non-incorporated ATP is washed away with 100 μl bi-dist H2O. The paper is washed twice in 0.5% H3PO4 for 15 min followed by 5 min in EtOH. Thereafter the paper is dryed and placed in an omnifilter (Packard 6005219), and overlayed with 10 μl/well of Microscint-O (Packard 6013611) before counting in a Topcount radioactivity counter (Packard). […] IC50 value are calculated from the graph by sigmoidal curve fitting. […]

For assay [2], the target named is T2, Human recombinant PKCη (Homo sapiens, UniProt P24723).
T2 construct: purchased PanVera
In words: Protein Kinase Cη Assay. The settings on record: 10 μM ATP. Type of assay: biochemical. Here is the method: as §1

Assay [3] addresses T3, Human recombinant PKCδ (Homo sapiens, UniProt Q05655).
T3 construct: purchased Oxford Biomedical Research
The assay is described as follows: Protein Kinase Cδ Assay. In kind it is biochemical. The following applies: 10 μM ATP. The protocol: as §1

Assay [4] deals with Rat Heart transplantation (graft survival). In words: Rat Heart transplantation. In kind it is in vivo. The settings on record: Lewis and BN strains, 30 mg/kg/day. The protocol:
The strain combination used: Male Lewis (RT^1 haplotype) and BN (RT^1 haplotype). The animals are anaesthetised using inhalational isofluorane. […] The aorta is ligated and divided distal to the first branch and the brachiocephalic trunk is divided at the first bifurcation. The left pulmonary artery is ligated and divided and the right side divided but left open. All other vessels are dissected free, ligated and divided and the donor heart is removed into iced saline.
The recipient is prepared by dissection and cross-clamping of the infra-renal abdominal aorta and vena cava. The graft is implanted with end-to-side anastomoses, using 10/0 monofilament suture, between the donor brachiocephalic trunk and the recipient aorta and the donor right pulmonary artery to the recipient vena cava. The clamps are removed, the graft tethered retroabdominally, the abdominal contents washed with warm saline and the animal is closed and allowed to recover under a heating lamp. Graft survival is monitored by daily palpation of the beating donor heart through the abdominal wall. Rejection is considered to be complete when heart beat stops. Increases of graft survival are obtained in animals treated with a compound of formula I administered orally at a daily dose of 1 to 30 mg/kg.

The target of assay [5] is T4, Human recombinant PKCα (Homo sapiens, UniProt P17252).
T4 construct: purchased Oxford Biomedical Research
In words: Protein Kinase Cα Assay. In kind it is biochemical. The following applies: 10 μM ATP. The protocol:
The compounds of formula I are tested for their activity on different PKC isoforms according to a published method (D. Geiges et al. Biochem. Pharmacol. 1997;53:865-875) The assay is performed in a 96-well polypropylene microtiterplate (Costar 3794) that has been previously siliconized with Sigmacote (Sigma SL-2). The reaction mixture (50 μl) contains 10 μl the relevant PKC isozyme together with 25 μl of the test compound and 15 μl of a mix solution that contains 200 μg/ml protamine sulfate, 10 mM Mg(NO3)2, 10 μM ATP (Boehringer 519987) and 3750 Bq of ^33P-ATP (Hartmann Analytic SFC301, 110TBq/mmol) in 20 mM Tris-buffer pH 7.4+0.1% BSA. Incubation is performed for 15 min at 32° C. in a microtiterplate shaking incubator (Biolabo Scientific Instruments). Reaction is stopped by adding 10 μl of 0.5 M Na2EDTA, pH 7.4. 50 μl of mixture are pipetted onto a pre-wetted phosphocellulose paper (Whatmann 3698-915) under gentle pressure. Non-incorporated ATP is washed away with 100 μl bi-dist H2O. The paper is washed twice in 0.5% H3PO4 for 15 min followed by 5 min in EtOH. Thereafter the paper is dryed and placed in an omnifilter (Packard 6005219), and overlayed with 10 μl/well of Microscint-O (Packard 6013611) before counting in a Topcount radioactivity counter (Packard). […] IC50 value are calculated from the graph by sigmoidal curve fitting.

Assay [6] addresses T5, Human recombinant PKCε (Homo sapiens, UniProt Q02156).
T5 construct: purchased Oxford Biomedical Research
T5 sequence (Q02156 1-737): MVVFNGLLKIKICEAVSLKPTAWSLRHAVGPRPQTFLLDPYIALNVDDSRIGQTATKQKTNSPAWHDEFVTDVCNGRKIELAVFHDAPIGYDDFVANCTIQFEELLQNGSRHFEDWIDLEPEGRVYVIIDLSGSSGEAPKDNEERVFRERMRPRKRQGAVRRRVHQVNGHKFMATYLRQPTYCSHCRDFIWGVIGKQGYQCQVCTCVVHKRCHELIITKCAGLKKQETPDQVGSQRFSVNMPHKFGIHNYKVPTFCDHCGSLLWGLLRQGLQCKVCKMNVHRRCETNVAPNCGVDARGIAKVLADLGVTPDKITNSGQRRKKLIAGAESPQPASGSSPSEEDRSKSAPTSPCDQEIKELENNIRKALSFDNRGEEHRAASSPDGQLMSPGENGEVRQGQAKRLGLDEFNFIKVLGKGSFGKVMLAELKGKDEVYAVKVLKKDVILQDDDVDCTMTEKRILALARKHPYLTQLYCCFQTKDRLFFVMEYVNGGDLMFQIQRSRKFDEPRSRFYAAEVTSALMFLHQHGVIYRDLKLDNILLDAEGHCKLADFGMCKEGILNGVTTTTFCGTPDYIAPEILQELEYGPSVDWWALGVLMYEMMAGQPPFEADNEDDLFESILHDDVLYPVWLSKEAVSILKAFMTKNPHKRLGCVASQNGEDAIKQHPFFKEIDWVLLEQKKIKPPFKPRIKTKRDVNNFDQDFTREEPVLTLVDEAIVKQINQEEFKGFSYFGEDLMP
The assay is described as follows: Protein Kinase Cε Assay. Type of assay: biochemical. The following applies: 10 μM ATP. Here is the method: as §1

The target of assay [7] is Human recombinant PKCθ (Homo sapiens, UniProt Q04759). In words: Protein Kinase C θ Assay. Type of assay: biochemical. The following applies: 10 μM ATP. An excerpt: Human recombinant PKCθ is used under the assay conditions as described above.
The subject of assay [8] is spleen cells from CBA and BALB/c mice. In words: Allogeneic Mixed Lymphocyte Reaction (MLR). The following applies: Mus musculus, two-way MLR, 3H-thymidine incorporation. Type of assay: cell-based. Here is the method:
The two-way MLR is performed according to standard procedures (J. Immunol. Methods, 1973, 2, 279 and Meo T. et al., Immunological Methods, New York, Academic Press, 1979, 227-39). Briefly, spleen cells from CBA and BALB/c mice (1.6×10^5 cells from each strain per well in flat bottom tissue culture microtiter plates, 3.2×10^5 in total) are incubated in RPMI medium containing 10% FCS, 100 U/ml penicillin, 100 μg/mI streptomycin (Gibco BRL, Basel, Switzerland), 50 μM 2-mercaptoethanol (Fluka, Buchs, Switzerland) and serially diluted compounds. Seven three-fold dilution steps in duplicates per test compound are performed. After four days of incubation 1 μCi ^3H-thymidine is added. Cells are harvested after an additional five-hour incubation period, and incorporated ^3H-thymidine is determined according to standard procedures. Background values (low control) of the MLR are the proliferation of BALB/c cells alone. Low controls are subtracted from all values. High controls without any sample are taken as 100% proliferation. Percent inhibition by the samples is calculated, and the concentrations required for 50% inhibition (IC50 values) are determined.
Background: Dividing cells build labelled thymidine or BrdU into new DNA.

Assay [9] relates to Jurkat cells transfected with a human interleukin-2 promoter/reporter gene construct. The assay is described as follows: CD28 costimulation assay. The settings on record: stimulated Jurkat cells, IL-2 promoter luciferase reporter, 5.5 hours. In kind it is cell-based. A general note: In a reporter assay the amount or activity of a reporter protein is the signal.

T2 sequence (P24723 whole entry): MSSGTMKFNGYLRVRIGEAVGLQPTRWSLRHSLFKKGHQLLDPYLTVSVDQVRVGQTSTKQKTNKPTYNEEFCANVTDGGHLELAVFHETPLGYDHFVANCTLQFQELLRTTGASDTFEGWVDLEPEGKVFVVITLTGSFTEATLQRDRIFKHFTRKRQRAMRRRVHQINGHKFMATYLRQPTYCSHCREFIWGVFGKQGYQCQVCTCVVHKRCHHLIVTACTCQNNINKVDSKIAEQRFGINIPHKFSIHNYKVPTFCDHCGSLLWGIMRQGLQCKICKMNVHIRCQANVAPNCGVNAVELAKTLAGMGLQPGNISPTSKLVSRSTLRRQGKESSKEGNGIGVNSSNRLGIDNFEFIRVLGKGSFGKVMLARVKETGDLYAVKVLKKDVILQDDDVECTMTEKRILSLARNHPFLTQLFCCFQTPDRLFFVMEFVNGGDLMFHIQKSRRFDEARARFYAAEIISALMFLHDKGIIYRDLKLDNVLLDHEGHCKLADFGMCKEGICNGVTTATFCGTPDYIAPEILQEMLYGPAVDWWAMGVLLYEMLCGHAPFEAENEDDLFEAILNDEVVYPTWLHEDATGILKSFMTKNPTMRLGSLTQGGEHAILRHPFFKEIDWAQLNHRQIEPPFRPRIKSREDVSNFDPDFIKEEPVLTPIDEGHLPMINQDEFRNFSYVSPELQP
Sequence of Human recombinant PKCθ (Q04759 whole entry): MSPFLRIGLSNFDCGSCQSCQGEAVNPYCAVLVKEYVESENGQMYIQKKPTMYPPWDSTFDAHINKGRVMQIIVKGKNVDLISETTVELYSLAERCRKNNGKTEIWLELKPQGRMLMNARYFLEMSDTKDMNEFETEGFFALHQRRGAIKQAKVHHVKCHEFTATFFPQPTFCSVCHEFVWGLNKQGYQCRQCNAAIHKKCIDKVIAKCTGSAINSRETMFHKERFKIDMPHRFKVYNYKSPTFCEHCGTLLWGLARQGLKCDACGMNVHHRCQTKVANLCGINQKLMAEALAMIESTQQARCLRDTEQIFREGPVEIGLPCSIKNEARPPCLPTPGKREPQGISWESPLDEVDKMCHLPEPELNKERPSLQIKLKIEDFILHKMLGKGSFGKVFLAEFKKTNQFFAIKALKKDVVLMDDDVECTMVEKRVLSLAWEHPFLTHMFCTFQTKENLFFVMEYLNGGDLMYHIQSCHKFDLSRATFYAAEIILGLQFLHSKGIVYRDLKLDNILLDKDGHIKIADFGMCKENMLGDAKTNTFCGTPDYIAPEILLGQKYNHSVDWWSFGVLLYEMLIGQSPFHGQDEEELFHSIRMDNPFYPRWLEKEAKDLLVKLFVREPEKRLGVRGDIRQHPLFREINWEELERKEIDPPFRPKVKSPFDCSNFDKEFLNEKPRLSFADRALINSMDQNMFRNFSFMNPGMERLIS
T3 sequence (Q05655 whole entry): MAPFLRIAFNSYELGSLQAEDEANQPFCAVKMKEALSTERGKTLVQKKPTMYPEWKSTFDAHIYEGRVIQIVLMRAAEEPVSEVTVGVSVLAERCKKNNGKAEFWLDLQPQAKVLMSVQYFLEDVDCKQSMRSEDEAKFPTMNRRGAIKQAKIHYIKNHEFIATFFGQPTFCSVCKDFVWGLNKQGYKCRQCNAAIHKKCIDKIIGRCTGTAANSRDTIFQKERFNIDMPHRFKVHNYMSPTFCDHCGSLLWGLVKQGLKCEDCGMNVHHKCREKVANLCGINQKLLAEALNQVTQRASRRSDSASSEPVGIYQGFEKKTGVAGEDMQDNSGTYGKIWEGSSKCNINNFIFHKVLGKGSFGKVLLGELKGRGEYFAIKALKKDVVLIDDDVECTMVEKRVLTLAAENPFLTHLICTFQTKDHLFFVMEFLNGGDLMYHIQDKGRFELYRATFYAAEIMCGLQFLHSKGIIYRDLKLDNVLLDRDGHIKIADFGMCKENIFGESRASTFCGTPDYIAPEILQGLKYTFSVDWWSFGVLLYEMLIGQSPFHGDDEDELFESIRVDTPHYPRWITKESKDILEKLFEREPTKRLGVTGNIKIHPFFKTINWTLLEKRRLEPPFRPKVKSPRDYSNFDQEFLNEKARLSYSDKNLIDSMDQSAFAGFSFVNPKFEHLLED
T1 sequence (P05771 whole entry): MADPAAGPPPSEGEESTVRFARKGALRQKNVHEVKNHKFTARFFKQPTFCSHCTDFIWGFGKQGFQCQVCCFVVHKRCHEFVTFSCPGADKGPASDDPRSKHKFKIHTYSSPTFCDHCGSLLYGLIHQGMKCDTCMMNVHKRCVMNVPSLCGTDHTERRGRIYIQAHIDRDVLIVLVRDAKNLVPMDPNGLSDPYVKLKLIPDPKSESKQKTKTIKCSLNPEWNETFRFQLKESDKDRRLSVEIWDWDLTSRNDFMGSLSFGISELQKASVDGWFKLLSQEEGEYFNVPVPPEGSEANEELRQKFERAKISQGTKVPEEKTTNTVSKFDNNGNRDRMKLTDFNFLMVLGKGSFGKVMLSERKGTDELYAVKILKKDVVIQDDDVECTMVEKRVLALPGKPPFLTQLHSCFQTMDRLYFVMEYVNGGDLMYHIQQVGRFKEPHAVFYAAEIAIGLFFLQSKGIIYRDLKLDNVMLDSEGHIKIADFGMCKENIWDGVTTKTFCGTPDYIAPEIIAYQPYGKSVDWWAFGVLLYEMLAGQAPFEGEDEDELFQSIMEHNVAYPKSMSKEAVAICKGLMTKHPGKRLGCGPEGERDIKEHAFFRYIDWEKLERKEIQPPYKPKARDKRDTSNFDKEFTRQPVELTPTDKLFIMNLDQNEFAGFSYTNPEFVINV

For `CN1CCN(c2cc(C3=C(c4c[nH]c5ccccc45)C(=O)NC3=O)c3ccccc3n2)CC1` [Example 163, 3-(1.H.-indol-3-yl)-4-[2-(4-methyl-piperazin-1-yl)-quinolin-4-yl]-pyrrole-2,5-dione], the IC50 in assay [1] was 8 ± 2 nM.
As for `CC(C)N1CCN(c2nc(C3=C(c4c[nH]c5ccccc45)C(=O)NC3=O)c3ccccc3n2)CC1` [Example 85], in assay [2], the IC50 was determined as 50 ± 9 nM.
Consider `CN1CCN(c2cc3ccccc3c(C3=C(c4c[nH]c5ccccc45)C(=O)NC3=O)n2)CC1` [Example 181, 3-(1.H.-Indol-3-yl)-4-[3-(4-methyl-piperazin-1-yl)-isoquinolin-1-yl]-pyrrole-2,5-dione], for which, in assay [3], the IC50 is 18 ± 8 nM.
Turning to `Cn1cc(C2=C(c3nc(N4CCNC5(CC5)C4)nc4ccccc34)C(=O)NC2=O)c2ccccc21` [Example 100], in assay [4], the graft survival result is “significantly increases the graft survival”. Also, the IC50 in assay [5] came to 39 ± 15 nM.
For the compound `Cc1cccc2c(C3=C(c4nc(N5CCN(C)CC5)nc5ccccc45)C(=O)NC3=O)c[nH]c12` [Example 139], the IC50 in assay [6] worked out at 20 ± 7 nM.
Regarding `CN1CCN(c2nc(C3=C(c4c[nH]c5ccccc45)C(=O)NC3=O)c3ccccc3n2)CC1` [Example 56, 3-(1.H.-indol-3-yl)-4-[2-(4-methyl-piperazin-1-yl)-quinazolin-4-yl]-pyrrole-2,5-dione], the IC50 in [7] is less than 10 nM; in assay [8] it was 168 ± 20 nM; in [9], 42 ± 12 nM.

One may read the IC50 as the point on the concentration scale where inhibition reaches its midpoint.
